Results from US20230413812A1, “SANITIZING COMPOSITIONS CONTAINING IONIC LIQUID” (CAGE BIO, INC., priority 2020, published 2023).

Tests used:
Format in all cases: cell-based
E. coli = test: Self-sanitizing activity of CG-101 in water and aqueous Poloxamer 407 on a surface with dried inoculum, 5 min contact
Protocol: This study was conducted to test the residual self-sanitizing activity of samples containing 5% CG-101 in water, in 5% aqueous […], and in 10% aqueous Poloxamer 407. Parameters of the experiments are listed below:
• Water (Negative Control) • 5% CG-101 Aqueous Solution (Positive Control) • 5% CG-101 in 5% Poloxamer 407 Aqueous Solution • 5% CG-101 in 10% Poloxamer 407 Aqueous solution
• 10 μl of E. coli suspension was applied on the surface and dried over 30 min • 1 ml of each test sample and control was applied on the surface with a dry inoculum • Contact time of 5 min was used • Neutralization was performed immediately after the contact time • 100 μl from each solution was plated onto agar plates and transferred to incubator set at 37 C for 48 hr. • Bacterial growth was observed after 48 hr. In the incubator.

[1] = system: Escherichia coli (E. coli); test: Residual self-sanitizing activity on hard, non-porous glass surface per EPA Protocol 01-1A (manual wear cycles); details: in CGB-D-100 disinfectant; lowest concentration tested
From the text: The purpose of this study is to test residual self-sanitizing activity of CGB-D-100 disinfectant per EPA protocol 01-1A, “Residual Self-Sanitizing Activity of Dried Chemical Residues on Hard, Non-Porous Surfaces.”
The scope of this study is to evaluate residual self-sanitizing activity of CGB-D-100 disinfectant with three different concentrations of CG-101, and to compare it to a marketed disinfectant (Microban® 24). Glass surface (microscope slides) will be used as a non-porous surface. Sterile saline solution will be used as a negative control and Microban® 24 will be used as the positive control. The method will simulate contact and touches by incorporating wear or wiping of the test surface as well as reinoculations of the test and control surfaces over 24 hours. The EPA protocol requires the use of an automated abrasion tester to simulate wear from wiping the surface. For the purposes of this protocol, abrasion or wear were be performed manually using cotton wipes.
First, the glass slides will be washed with a non-medical soap and water followed by cleaning with 70% alcohol and allowed to air dry. […]
Test product, negative control, and positive control will be applied to replicate test surfaces according to the product's Directions for Use or until surface is completely wet. […] The temperature and humidity in the lab will be recorded. […]

[2] = Antimicrobial efficacy time kill test (ASTM E2783-11, neutralization per E1054-08)
Protocol: The purpose of this study was to test antimicrobial efficacy of 1%, 3%, and 5% CG-101 disinfectant formulations.
The study was performed using the following standard protocols: • I. American Society for Testing and Materials. Standard Test Methods for Evaluation of
Inactivators of Antimicrobial Agents; Designation: E1054-08 (Reapproved 2013). West Conshohocken, PA. • II. American Society for Testing and Materials. Standard Test Method for Assessment of Antimicrobial Activity for Water Miscible Compounds Using a Time-Kill Procedure. Designation: E2783-11 (Reapproved 2016). West Conshohocken, PA.
Initial neutralization testing confirmed that the test material was adequately neutralized at all concentrations tested. The time kill procedure included triplicate testing and all plate counts were performed in duplicate
CG-101 was added to water to form mixtures of 1 wt %, 3 wt %, and 5 wt % of CG-101.

[3] = 1 wt % CG-101 in water, 1 minute
[4] = 1 wt % CG-101 in water, 5 minutes
[5] = 1 wt % CG-101 in water, at seconds
[6] = 3 wt % CG-101 in water, 1 minute
[7] = 3 wt % CG-101 in water, 5 minutes
[8] = 3 wt % CG-101 in water, at seconds
[9] = 5 wt % CG-101 in water, 1 minute
[10] = 5 wt % CG-101 in water, 5 minutes
[11] = 5 wt % CG-101 in water, at seconds

Q: Which “bacterial growth on TSA plates” value (E. coli; 5% CG-101 in 5% aqueous Poloxamer 407, 48 hr incubation) does the source give for Choline geranate [CG-101] here?
A: Its value is “No bacterial growth”.

Q: What about the “bacterial growth on TSA plates” value (E. coli; 5% CG-101 in 10% aqueous Poloxamer 407, 48 hr incubation) of the same substance?
A: The value was “No bacterial growth”.

Q: What about the “bacterial growth on TSA plates” value (E. coli; 5% CG-101 in water (positive control of this study), 48 hr incubation) of the same substance?
A: Its value is “No bacterial growth”.

Q: And the “concentration of CG-101 sufficient to kill all applied bacteria and to preserve the glass surface for 24 h” value [1]?
A: The value was 2%.

Q: And the killing [2, 3]?
A: The killing was 99.9%.

Q: And the “log decrease in CFU” value [2, 3]?
A: The value was greater than 3 log.

Q: And the killing [2, 4]?
A: The killing was 99.9%.

Q: And the “log decrease in CFU” value [2, 4]?
A: Its value is greater than 3 log.

Q: And the killing [2, 5]?
A: Its killing is 99.9%.

Q: What about the “log decrease in CFU” value [2, 5] of the same substance?
A: The value was greater than 3 log.

Q: What about the killing [2, 6] of the same substance?
A: Its killing is 99.9%.

Q: And the “log decrease in CFU” value [2, 6]?
A: Its value is greater than 3 log.

Q: And the killing [2, 7]?
A: The killing was 99.9%.

Q: What about the “log decrease in CFU” value [2, 7] of the same substance?
A: Its value is greater than 3 log.

Q: And the killing [2, 8]?
A: Its killing is 99.9%.

Q: And the “log decrease in CFU” value [2, 8]?
A: The value was greater than 3 log.

Q: What about the killing [2, 9] of the same substance?
A: The killing was 99.9%.

Q: And the “log decrease in CFU” value [2, 9]?
A: Its value is greater than 3 log.

Q: And the killing [2, 10]?
A: The killing was 99.9%.

Q: What about the “log decrease in CFU” value [2, 10] of the same substance?
A: Its value is greater than 3 log.

Q: And the killing [2, 11]?
A: The killing was 99.9%.

Q: And the “log decrease in CFU” value [2, 11]?
A: The value was greater than 3 log.
